Entries after “also recorded” stand apart in the source; their conditions may differ.
Legend:
[1] = system: PC12 cells; conditions: 5 μM, 24 hours
[2] = molecular target: T1, PDZ1/2 domain (Homo sapiens, UniProt P78352)
[3] = molecular target: T1, PDZ1/2 domain; conditions: His beads, SDS-PAGE of eluate, FIG. 1

T1 sequence (P78352 61-249 limits assumed): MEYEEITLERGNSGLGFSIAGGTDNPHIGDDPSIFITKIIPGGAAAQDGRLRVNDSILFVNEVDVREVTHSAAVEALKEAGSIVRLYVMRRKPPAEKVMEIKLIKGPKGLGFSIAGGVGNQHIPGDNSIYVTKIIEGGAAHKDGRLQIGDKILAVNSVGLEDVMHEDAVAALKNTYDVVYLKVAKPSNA

CC[C@H](C)[C@H](NC(=O)[C@H](CCC(=O)O)NC(=O)[C@@H](NC(=O)[C@H](CC(=O)O)NC(=O)[C@H](CC(C)C)NC(=O)[C@H](CC(C)C)NC(=O)[C@H](CCCCN)NC(=O)[C@H](CCC(=O)O)NC(=O)[C@H](Cc1ccc(O)cc1)NC(=O)[C@H](CCCNC(=N)N)NC(=O)[C@H](CCCNC(=N)N)NC(=O)[C@H](CCCNC(=N)N)NC(=O)[C@H](CCC(N)=O)NC(=O)[C@H](CCCNC(=N)N)NC(=O)[C@H](CCCNC(=N)N)NC(=O)[C@H](CCCCN)NC(=O)[C@H](CCCCN)NC(=O)[C@H](CCCNC(=N)N)NC(=O)CNC(=O)[C@@H](N)Cc1ccc(O)cc1)[C@@H](C)O)C(=O)O [P5-Ac]
cytotoxicity (cell viability) [1]: no significant cytotoxicity

CC[C@H](C)[C@H](NC(=O)[C@H](CCC(=O)O)NC(=O)[C@@H](NC(=O)[C@H](CC(=O)O)NC(=O)[C@H](CC(C)C)NC(=O)[C@H](CC(C)C)NC(=O)[C@H](CCCCN)NC(=O)[C@H](CCC(=O)O)NC(=O)[C@H](Cc1ccc(O)cc1)NC(=O)[C@H](CCCNC(=N)N)NC(=O)[C@H](CCCNC(=N)N)NC(=O)[C@H](CCCNC(=N)N)NC(=O)[C@H](CCC(N)=O)NC(=O)[C@H](CCCNC(=N)N)NC(=O)[C@H](CCCNC(=N)N)NC(=O)[C@H](CCCCN)NC(=O)[C@H](CCCCN)NC(=O)[C@H](CCCNC(=N)N)NC(=O)CNC(=O)[C@@H](N)Cc1ccc(O)cc1)[C@@H](C)O)C(=O)O [P5]
interaction with the PDZ1/2 domain as compared with control chimeric peptide NA-1 [2]: interacted more strongly
binding to PDZ1/2 domain in pull-down assay [3]: can bind to the PDZ1/2 domain; also recorded: capable of binding to PDZ1/2 domain
